According to ChEMBL document CHEMBL3352448, “Phytochemical analysis and antileukemic activity of polyphenolic constituents of Toona sinensis” (Bioorg Med Chem Lett, 2014):
Active and inactive are the calls of the source. The rule behind the calls is not given here.

Tests used:
[1] = Retention time of the compound by UPLC analysis; assay type: physicochemical
[2] = (§1) Cytotoxicity against human HL60 cells assessed as cell survival at 50 uM after 72 hrs by CCK8 assay; assay type: functional; conditions: HL-60, 72 h, read-out: Survival
HL-60 [3] = assay: as §1; assay type: functional
HL-60 [4] = assay: Induction of cell morphological changes in human HL60 cells assessed as increase in nuclear complexity at 50 uM by Giemsa staining method; assay type: functional, cell-based
HL-60 [5] = assay: Induction of apoptosis in human HL60 cells assessed as chromatin condensation at 50 uM by Hoechst 33342 staining method; assay type: functional, cell-based
HL-60 [6] = assay: Induction of apoptosis in human HL60 cells assessed as nuclear fragmentation at 50 uM by Hoechst 33342 staining method; assay type: functional, cell-based
HL-60 [7] = assay: Induction of cell morphological changes in human HL60 cells assessed as increase in cytoplasmic content at 50 uM by Giemsa staining method; assay type: functional, cell-based
HL-60 [8] = assay: Induction of apoptosis in human HL60 cells assessed as membrane blebbing at 50 uM by Hoechst 33342 staining method; assay type: functional, cell-based
HL-60 [9] = assay: Induction of cell morphological changes in human HL60 cells assessed as increase in cellular size at 50 uM by Giemsa staining method; assay type: functional, cell-based

Row | SMILES | Retention_time [1] [min] | viability at 50 µM [2] [%] | further results
1 | O=C(O[C@H]1[C@H](Oc2c(-c3ccc(O)cc3)oc3cc(O)cc(O)c3c2=O)O[C@H](CO)[C@@H](O)[C@@H]1O)c1cc(O)c(O)c(O)c1 | 27.02 | 48.3 | –
2 | O=c1c(O)c(-c2ccc(O)c(O)c2)oc2cc(O)cc(O)c12 [QUERCETIN] | 28.97 | 29.7 | –
3 | O=c1c(O)c(-c2ccc(O)cc2)oc2cc(O)cc(O)c12 | – | – | Activity (HL-60 [3]): Active
4 | O=c1c(O[C@@H]2O[C@H](CO)[C@@H](O)[C@H](O)[C@H]2O)c(-c2ccc(O)cc2)oc2cc(O)cc(O)c12 | – | – | Activity (HL-60 [3]): Active
5 | Oc1cc(O)c2c(c1)O[C@H](c1ccc(O)c(O)c1)[C@H](O)C2 [(-)-EPICATECHIN] | 17.1 | – | –
6 | Oc1cc(O)c2c(c1)O[C@H](c1ccc(O)c(O)c1)[C@@H](O)[C@@H]2c1c(O)cc(O)c2c1O[C@H](c1ccc(O)c(O)c1)[C@@H](O)C2 | 14.6 | 58.9 | –
7 | C[C@@H]1O[C@@H](Oc2c(-c3ccc(O)cc3)oc3cc(O)cc(O)c3c2=O)[C@H](O)[C@H](O)[C@H]1O [AFZELIN] | 25.42 | 45.8 | –
8 | O=C(OC[C@H]1O[C@@H](Oc2c(-c3ccc(O)cc3)oc3cc(O)cc(O)c3c2=O)[C@H](OC(=O)c2cc(O)c(O)c(O)c2)[C@@H](O)[C@@H]1O)c1cc(O)c(O)c(O)c1 | 23.37 | 24.6 | Activity (HL-60 [4]): Active; Activity (HL-60 [5]): Active; Activity (HL-60 [6]): Active; Activity (HL-60 [7]): Active; Activity (HL-60 [8]): Active; Activity (HL-60 [9]): Active
9 | CCOC(=O)c1cc(O)c(O)c(O)c1 [ETHYLGALLATE] | 20.55 | 55.7 | –
10 | C[C@@H]1O[C@@H](Oc2c(-c3ccc(O)c(O)c3)oc3cc(O)cc(O)c3c2=O)[C@H](O)[C@H](O)[C@H]1O [QUERCITRIN] | 23.37 | 46.8 | –
11 | O=C(O)c1cc(O)c(O)c(O)c1 [GALLIC ACID] | 5.04 | 4.3 | –
12 | Oc1cc(O)c2c(c1)O[C@H](c1ccc(O)c(O)c1)[C@@H](O)C2 [CIANIDANOL] | 13.56 | 47 | –
